For series [1] the following is noted: cited from earlier work. The text has this: The zwitterionic fluorophore ZW (emitting NIR fluorescence at 800 nm) was synthesized as reported previously.^[ [6] ^] […] To create the ZWPro conjugate, ZW (1.2 equiv.) was covalently attached to Pro using N‐Hydroxysuccinimide (NHS) ester and led to a stable amide bond formation (Figure 1b). Pro peptides were en ...

Series [2] relates to HT29 tumor-bearing mice. Briefly: In vivo tumor reduction test. The following applies: i.v. 50 nmol (9.5 mg kg−1) twice; weighed every other day for 30 days; versus control group. On the procedure:
Owing to the cancer‐specific cytotoxicity of ZWPro, the in vivo tumor targetability and theranostic capacity of ZWPro were evaluated in HT29 tumor‐bearing mice. Preliminary studies were conducted to determine the optimal dosage of ZWPro to achieve effective anticancer activity. […] To investigate the antitumor impact, mice were intravenously injected with PBS (150 µL) (control group), and with ZWPro (150 µL) or ZW (150 µL, 50 nmol at 9.5 mg k^−1g). […] The tumor size increased slightly after the treatment on d 0. […] Stable mouse body weights were observed across all experimental groups. After 30 d of treatment with ZWPro, tumors were smaller than those in the ZW and PBS groups (Figure 4g).
Figure 4 In vivo, tumor growth inhibition and studies in tumor‐induced mice subcutaneously injected with HT29 cells and treated with ZWPro. a) Schematic of the treatment schedule and experimental design of PBS, ZW, and ZWPro. […] PK parameters of ZW and ZWPro (0.3 µmol kg^−1) (t1/2α; distribution half‐life, t1/2β; elimination half‐life, AUC; area under the curve, Vd volume of distribution, and urinary excretion (% injected dose, %ID)) were calculated using the software Prism 9. […] (Exposure time = 100 ms, n = 3, mean ± s.e.m.) The SBR was calculated by the fluorescence intensity of each organ (Or) against the system background (Exposure time = 1000 ms, n = 3, mean ± s.e.m.). […]

Series [3] has as its system NIH3T3 cells. Put plainly: Cellular uptake by fluorescence microscopy. The following applies: 20 µM, 2 h, 37 °C; fluorescent microscopy. Type of series: cell-based, mouse. On the procedure: (§1) Fluorescence microscopic assessments were performed to compare the intracellular uptake of ZW and ZWPro in cancerous and normal cells. Two sets of cathepsin B‐expressing cancer cells (HT29 and MCF7) and 2 sets of normal cells (L929 and NIH3T3) were seeded in a confocal dish and incubated at 37 °C for 1 d before treatment. Subsequently, 20 µM ZWPro and ZW were added to the cells for 2 h. Subsequently, 50 nM of LysoTracker Green (a fluorescent dye that selectively labels lysosomes) was added for 30 min. Following incubation with the dye, the cells were resuspended with fresh media after they were rinsed 3 times with 1X PBS to remove any remaining dye, and imaging was performed. To determine the role of organic anion transporter peptides (OATPs) in the ZWPro uptake process, HT29 cells were pretreated with BSP (250 µM, Sigma–Aldrich, 167 207) for 20 min in the inhibition assay. Cells were then incubated with 20 µM of ZWPro at 37 °C for 15 min. After washing, cell images were obtained. Images were obtained using a Nikon Eclipse inverted microscope, DS‐Ri2, or DS‐Qi2 (Ex/Em, 754/774 nm; exposure time, 2 s). The fluorescent intensity of each cell was measured using ImageJ (version 1.51j8, National Institutes of Health, Bethesda, MD, USA). The outline of each cell was determined on a phase‐contrast image.
(§2) Figure S5. Cellular uptake and intracellular localization of ZW and ZWPro. […]

Series [4] concerns HT29 cells. Put plainly: WST-8 cytotoxicity assay. Type of series: cell-based, human. The following applies: 5, 10 and 20 µM, 24 h (Figure S4); n = 5. On the procedure: (§3) Figure 2 In vitro cellular evaluations of ZWPro in cancer cells. a) Cytotoxicity assay showing HT29, MCF7, L929, and NIH3T3 cells treated with 20 µM of ZW and ZWPro for 2 and 24 h, respectively, followed by an assessment of cell viability using the water‐soluble tetrazolium assay (n = 5, mean ± s.e.m.). b) Cellular uptake and intracellular endosomal localization of ZW and ZWPro were observed by treating HT29 and L929 cells with 20 µM of ZW and ZWPro. […] The internalization index was determined in 2–9 photographic areas (ns, not significant, *p < 0.05 based on two‐way analysis of variance followed by Bonferroni's multiple comparison test). c) Inhibition assay of cellular uptake of ZWPro to determine the entry mechanisms in HT29 cells. […] The co‐localizing pixels (%) were calculated by dividing the area of overlap between ZWPro and LysoTracker by the total area of the LysoTracker, respectively. […]
(§4) To evaluate the cytotoxicity of ZW and ZWPro in cancer and normal cells, HT29, MCF7, L929, and NIH 3T3 cells were collected by trypsinization and resuspended in 96‐well plates at a concentration of 10 000 cells/well in fresh growth media and incubated for 1 d at 37 °C under 5% CO2 conditions. […] Absorption was subsequently measured at 450 nm on a microplate reader (Thermo Scientific, Varioskan LUX multimode). […]
(Tetrazolium dyes change colour on reduction, which living cells bring about.)

In series [5] the test system is MCF7 cells. Put plainly: Cellular uptake by fluorescence microscopy. The following applies: 20 µM, 2 h, 37 °C; fluorescent microscopy. Type of series: cell-based. On the procedure: as §1, §2
Series [6] relates to HT29 cells. Briefly: Cellular uptake by fluorescence microscopy. The settings on record: 20 µM, 2 h, 37 °C; NIR fluorescence microscopy. The series is classed as cell-based, human. How it is done:
(§5) Figure 2 In vitro cellular evaluations of ZWPro in cancer cells. a) Cytotoxicity assay showing HT29, MCF7, L929, and NIH3T3 cells treated with 20 µM of ZW and ZWPro for 2 and 24 h, respectively, followed by an assessment of cell viability using the water‐soluble tetrazolium assay (n = 5, mean ± s.e.m.). b) Cellular uptake and intracellular endosomal localization of ZW and ZWPro were observed by treating HT29 and L929 cells with 20 µM of ZW and ZWPro. […] The internalization index was determined in 2–9 photographic areas (ns, not significant, *p < 0.05 based on two‐way analysis of variance followed by Bonferroni's multiple comparison test). c) Inhibition assay of cellular uptake of ZWPro to determine the entry mechanisms in HT29 cells. Cultured cells were incubated with bromsulphthalein for 20 min and then incubated with ZWPro (20 µM) in media for 15 min. […] The co‐localizing pixels (%) were calculated by dividing the area of overlap between ZWPro and LysoTracker by the total area of the LysoTracker, respectively. […]
(§6) Fluorescence microscopic assessments were performed to compare the intracellular uptake of ZW and ZWPro in cancerous and normal cells. […] The fluorescent intensity of each cell was measured using ImageJ (version 1.51j8, National Institutes of Health, Bethesda, MD, USA). The outline of each cell was determined on a phase‐contrast image.

Series [7] deals with NIH 3T3 cells. Briefly: WST-8 cytotoxicity assay. The series is classed as cell-based, mouse. The settings on record: 5, 10 and 20 µM, 24 h (Figure S4); n = 5. On the procedure:
(§7) Figure 2 In vitro cellular evaluations of ZWPro in cancer cells. a) Cytotoxicity assay showing HT29, MCF7, L929, and NIH3T3 cells treated with 20 µM of ZW and ZWPro for 2 and 24 h, respectively, followed by an assessment of cell viability using the water‐soluble tetrazolium assay (n = 5, mean ± s.e.m.). b) Cellular uptake and intracellular endosomal localization of ZW and ZWPro were observed by treating HT29 and L929 cells with 20 µM of ZW and ZWPro. […] The internalization index was determined in 2–9 photographic areas (ns, not significant, *p < 0.05 based on two‐way analysis of variance followed by Bonferroni's multiple comparison test). c) Inhibition assay of cellular uptake of ZWPro to determine the entry mechanisms in HT29 cells. Cultured cells were incubated with bromsulphthalein for 20 min and then incubated with ZWPro (20 µM) in media for 15 min. Data are presented as means ± standard deviations (n = 7–8) **p < 0.01 based on Welch's t‐test. d) Findings from HT29 human colorectal adenocarcinoma cells and L929 fibroblast cell lines co‐stained with the lysosome marker LysoTracker Green. Co‐localization occurs at specific time intervals during imaging. The co‐localizing pixels (%) were calculated by dividing the area of overlap between ZWPro and LysoTracker by the total area of the LysoTracker, respectively. Scale bars: 10 µm.
(§8) To evaluate the cytotoxicity of ZW and ZWPro in cancer and normal cells, HT29, MCF7, L929, and NIH 3T3 cells were collected by trypsinization and resuspended in 96‐well plates at a concentration of 10 000 cells/well in fresh growth media and incubated for 1 d at 37 °C under 5% CO2 conditions. After the cells were completely attached to the walls, the original medium was discarded and replaced with a 200 µL fresh culture medium which contained different concentrations of ZW and ZWPro. Cells were then cultured in a constant temperature incubator for 2 and 24 h. EZ‐Cytox solution (10%) was then added to each well, and the plates were incubated at 37 °C in a 5% CO2 incubator for 2 h in the dark. Cells were then exposed to a digital orbital shaker (Scilab Instruments Co, No. SSO‐2D) at 200 rpm. Absorption was subsequently measured at 450 nm on a microplate reader (Thermo Scientific, Varioskan LUX multimode). […] Statistical analysis was conducted using the software GraphPad Prism 8.

Series [8] concerns L929 cells. Put plainly: WST-8 cytotoxicity assay. Type of series: cell-based, mouse. The settings on record: 5, 10 and 20 µM, 24 h (Figure S4); n = 5. On the procedure: as §7, §8
Series [9] is described as follows: Photostability test under 760 nm laser. Type of series: physicochemical. The settings on record: all tested solvents, up to 4 h. On the procedure:
Photostability assay was conducted to compare ZW800‐1C with ZWPro in PBS and also evaluated ZWPro in distilled water and 10% FBS in PBS exposed to continuous irradiation using a 760 nm laser diode at 4 mW cm^−2, with white light (400–650 nm) at 40 000 lux and imaged up to 4 h. The fluorescence intensity (FI) signal (%) was calculated by measured values with ImageJ version 1.53t using images captured at each time point. Fluorescence values of the quenching assay were conducted at different concentration points at 0 and 4 h to determine the quenching concentration and to assess any significant photodegradation or photobleaching effects.
The data, presented as mean ± SD, assessed the fluorescence image by measuring regions of interest (ROI) and comparing fluorescence intensity against the initial fluorescence signal.
Figure S3. Optical property characterization of the ZWPro (a) Absorbance and Fluorescence spectra of ZWPro and optical properties of Pro, ZW800-1C, and ZWPro. (b) Stability test of ZWPro with PBS and 10% FBS in PBS until 24 h at 37 °C incubator. (c) Fluorescence image and value are used to determine quenching concentration under a 760nm channel of different concentrations of ZWPro depending on time. Photostability test of (d) ZW800-1C and ZWPro in PBS. (e) Photostability test of ZWPro in different solvents. DW: Distilled water, 10% FBS: Fetal bovine serum in PBS. […]

The subject of series [10] is HT29 tumor-bearing mice. Put plainly: Time-dependent in vivo NIR tumor imaging and biodistribution. The following applies: 20 nmol i.v., real-time NIR fluorescence imaging. The text has this: Figure 4 In vivo, tumor growth inhibition and studies in tumor‐induced mice subcutaneously injected with HT29 cells and treated with ZWPro. a) Schematic of the treatment schedule and experimental design of PBS, ZW, and ZWPro. Biodistribution and pharmacokinetic (PK) parameters of targeted ZW and ZWPro in normal mice. PK parameters of ZW and ZWPro (0.3 µmol kg^−1) (t1/2α; distribution half‐life, t1/2β; elimination half‐life, AUC; area under the curve, Vd volume of distribution, and urinary excretion (% injected dose, %ID)) were calculated using the software Prism 9. Urinary excretion occurred at 48 h post‐injection (n = 2–3 per group, mean ± s.e.m.). (b) In total, 20 nmol of each compound was injected into BLAB/C nude mice (weights = 20–25 g) and time‐dependent imaging was performed post‐injection. c) Color and NIR fluorescence in vivo images of ZW and ZWPro (0.3 µmol kg^−1) were taken at different time intervals. d) Tumor‐to‐background (TBR) ratios of tumors (white dotted circles in (c)) compared with muscles obtained from at each time point; and e) signal‐to‐background (SBR) outcomes were calculated using NIR images of resected organs at 48 h post‐injection. (Exposure time = 100 ms, n = 3, mean ± s.e.m.) The SBR was calculated by the fluorescence intensity of each organ (Or) against the system background (Exposure time = 1000 ms, n = 3, mean ± s.e.m.). […]

The subject of series [11] is L929 cells. Put plainly: Cellular uptake by fluorescence microscopy. Type of series: cell-based, mouse. The following applies: 20 µM, 2 h, 37 °C; NIR fluorescence microscopy. How it is done:
as §5, §6

Series [12] has as its system MCF7 cells. Briefly: WST-8 cytotoxicity assay. The series is classed as cell-based. The following applies: 5, 10 and 20 µM, 24 h (Figure S4); n = 5. How it is done:
as §3, §4

Turning to `CC1(C)C(/C=C/C2=C(c3ccc(CCC(=O)O)cc3)C(=C/C=C3/N(CCC[N+](C)(C)C)c4ccc(S(=O)(=O)O)cc4C3(C)C)/CCC2)=[N+](CCC[N+](C)(C)C)c2ccc(S(=O)(=O)O)cc21` [ZW, ZW800‐1C], the “plasma protein binding (in words)” value in series [1] is reported as “low‐plasma protein binding”. Besides, in series [2], the “body weight change (in words)” value is given as “neither ZWPro nor ZW resulted in weight loss”. The “cellular uptake / internalization (in words)” value in [3] is on record as “does not show internalization”; in series [5], “does not show internalization”; in series [6], “not internalized”; in [11], “not internalized”. The “toxicity (in words)” value in series [4], in [7], in series [8] and in series [12] was “negligible toxicity” in each case. For the same compound, the “photostability (in words)” value in series [9] is reported as “strong photostability”. Also, the “tumor targeting / accumulation (in words)” value in series [10] is on record as “no tumor specificity or cell penetration ability”.
For the compound Protamine, the “toxicity (in words)” value in [4], in [7], in [8] and in [12] was “negligible toxicity” in each case.

The values are drawn from article PMC11538690, “Lysosome‐Targeted Bifunctional Therapeutics Induce Autodynamic Cancer Therapy” (Advanced Science, 2024).
